We go through 22 compounds from patent US12780800B1, “Triazole-pyridinyl substituted azacyclohexyl acetic acid compounds as LPA receptor antagonists” (Viva Star Biosciences Limited, priority 2021, dated 2022).

Structures are written as SMILES. Some results are limits rather than exact numbers.

In general, IC50 refers to the concentration that gives 50% inhibition.

T1 sequence (Q92633 whole entry, the tested form may be a part): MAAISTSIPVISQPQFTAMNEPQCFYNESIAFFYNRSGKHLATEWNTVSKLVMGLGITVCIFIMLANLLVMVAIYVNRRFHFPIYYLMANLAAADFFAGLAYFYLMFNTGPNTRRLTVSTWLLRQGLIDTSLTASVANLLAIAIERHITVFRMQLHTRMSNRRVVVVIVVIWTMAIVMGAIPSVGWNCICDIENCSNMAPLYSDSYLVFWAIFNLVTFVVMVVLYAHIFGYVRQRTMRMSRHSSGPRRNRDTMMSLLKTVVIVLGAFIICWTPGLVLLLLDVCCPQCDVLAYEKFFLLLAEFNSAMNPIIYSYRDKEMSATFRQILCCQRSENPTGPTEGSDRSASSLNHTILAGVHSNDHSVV

The test addresses T1, LPA1 (Homo sapiens, UniProt Q92633).
T1 construct: ProLink (PK) beta-galactosidase enzyme-fragment tag; host or cells: CHO-K1
Kind of test: LPA1 calcium flux assay (LPA1 functional antagonist assay). It is filed as cell-based. Conditions: PathHunter CHO-K1 EDG2 β-Arrestin cell line; calcium indicator dye; stimulated with EC80 concentration of LPA; FLIPR Tetra. How it is done: Following overnight culture, cells were loaded with calcium indicator dye from the HitHunter Calcium No WashPLUS Assay kit (Eurofins DiscoverX Corporation, Cat #93-0091) for 45 minutes at 37° C. […] After compound addition, assay plates were equilibrated to room temperature for 30 minutes. […] IC50 values were determined by Chemical and Biological Information System from ChemInnovation Software, Inc. The compounds of this invention were tested for their activity to inhibit LPA1 as determined in an LPA1 functional antagonist assay as described herein.
For orientation: A change in cytosolic calcium serves as a functional read-out for many receptors and channels.
On to `CCCc1ccc(=O)n(Cc2c(-c3ccc(N4C[C@@H](F)C[C@H](CC(=O)O)C4)c(CC)n3)nnn2C)c1` (single isomer, unassigned) [Example 45, 2-((3S,5S) or (3R,5R)-1-(2-ethyl-6-(1-methyl-5-((2-oxo-5-propylpyridin-1(2H)-yl)methyl)-1H-1,2,3-triazol-4-yl)pyridin-3-yl)-5-fluoropiperidin-3-yl)acetic acid], for which the IC50 is 100 to 500 nM. On to `CCCc1ccc(=O)n(Cc2c(-c3ccc(N4C[C@H](F)C[C@@H](CC(=O)O)C4)c(CC)n3)nnn2C)c1` (single isomer, unassigned) [Example 46, 2-((3R,5R) or (33,5S)-1-(2-ethyl-6-(1-methyl-5-((2-oxo-5-propylpyridin-1(2H)-yl)methyl)-1H-1,2,3-triazol-4-yl)pyridin-3-yl)-5-fluoropiperidin-3-yl)acetic acid], for which the IC50 is over 5000 nM. For the compound `CCCc1ccc(=O)n(Cc2c(-c3ccc(N4CCCC(CC(=O)O)C4=O)c(CC)n3)nnn2C)c1` (single isomer, unassigned) [Example 52, (R) or (S)-2-(1-(2-ethyl-6-(1-methyl-5-((2-oxo-5-propylpyridin-1(2H)-yl)methyl)-1H-1,2,3-triazol-4-yl)pyridin-3-yl)-2-oxopiperidin-3-yl)acetic acid], the IC50 lay in the range of 500 to 5000 nM. As to `CCCc1ccc(=O)n(Cc2c(-c3ccc(N4CCCC(CC(=O)O)C4=O)c(CC)n3)nnn2C)c1` (single isomer, unassigned) [Example 53, (S) or (R)-2-(1-(2-ethyl-6-(1-methyl-5-((2-oxo-5-propylpyridin-1(2H)-yl)methyl)-1H-1,2,3-triazol-4-yl)pyridin-3-yl)-2-oxopiperidin-3-yl)acetic acid], the IC50 is over 5000 nM. `CCCc1ccc(=O)n(Cc2c(-c3ccc(N4CC(CC(=O)O)CCC4=O)c(CC)n3)nnn2C)c1` (single isomer, unassigned) [Example 54, (R) or (S)-2-(1-(2-ethyl-6-(1-methyl-5-((2-oxo-5-propylpyridin-1(2H)-yl)methyl)-1H-1,2,3-triazol-4-yl)pyridin-3-yl)-6-oxopiperidin-3-yl)acetic acid]: the IC50 is over 5000 nM. Take `CCCc1ccc(=O)n(Cc2c(-c3ccc(N4CC(CC(=O)O)CCC4=O)c(CC)n3)nnn2C)c1` (single isomer, unassigned) [Example 55, (S) or (R)-2-(1-(2-ethyl-6-(1-methyl-5-((2-oxo-5-propylpyridin-1(2H)-yl)methyl)-1H-1,2,3-triazol-4-yl)pyridin-3-yl)-6-oxopiperidin-3-yl)acetic acid]: the IC50 is over 5000 nM. Regarding `CCc1nc(-c2nnn(C)c2COc2nccc(C3CCC3)n2)ccc1N1CC(CC(=O)O)CCC1=O` (single isomer, unassigned) [Example 91, (R) or (S)-2-(1-(6-(5-(((4-cyclobutylpyrimidin-2-yl)oxy)methyl)-1-methyl-1H-1,2,3-triazol-4-yl)-2-ethylpyridin-3-yl)-6-oxopiperidin-3-yl)acetic acid], the IC50 was over 5000 nM. Turning to `CCc1nc(-c2nnn(C)c2COc2nccc(C3CCC3)n2)ccc1N1CC(CC(=O)O)CCC1=O` (single isomer, unassigned) [Example 92, (S) or (R)-2-(1-(6-(5-(((4-cyclobutylpyrimidin-2-yl)oxy)methyl)-1-methyl-1H-1,2,3-triazol-4-yl)-2-ethylpyridin-3-yl)-6-oxopiperidin-3-yl)acetic acid], the IC50 is over 5000 nM. As for `CCc1nc(-c2nnn(C)c2COc2nccc(C3CCC3)n2)ccc1N1CCCC(CC(=O)O)C1=O` (single isomer, unassigned) [Example 93, (R) or (S)-2-(1-(6-(5-(((4-cyclobutylpyrimidin-2-yl)oxy)methyl)-1-methyl-1H-1,2,3-triazol-4-yl)-2-ethylpyridin-3-yl)-2-oxopiperidin-3-yl)acetic acid], the IC50 is 100 to 500 nM. On to `CCc1nc(-c2nnn(C)c2COc2nccc(C3CCC3)n2)ccc1N1CCCC(CC(=O)O)C1=O` (single isomer, unassigned) [Example 94, (S) or (R)-2-(1-(6-(5-(((4-cyclobutylpyrimidin-2-yl)oxy)methyl)-1-methyl-1H-1,2,3-triazol-4-yl)-2-ethylpyridin-3-yl)-2-oxopiperidin-3-yl)acetic acid], for which the IC50 lay in the range of 500 to 5000 nM. As to `Cc1nc(-c2nnn(C)c2COc2nccc(C3CCC3)n2)ccc1CN1CC(C(=O)O)CC(F)(F)C1` (single isomer, unassigned) [Example 147, (S) or (R)-1-((6-(5-(((4-cyclobutylpyrimidin-2-yl)oxy)methyl)-1-methyl-1H-1,2,3-triazol-4-yl)-2-methylpyridin-3-yl)methyl)-5,5-difluoropiperidine-3-carboxylic acid], the IC50 was under 100 nM. For the compound `Cc1nc(-c2nnn(C)c2COc2nccc(C3CCC3)n2)ccc1CN1CC(C(=O)O)CC(F)(F)C1` (single isomer, unassigned) [Example 148, (R) or (S)-1-((6-(5-(((4-cyclobutylpyrimidin-2-yl)oxy)methyl)-1-methyl-1H-1,2,3-triazol-4-yl)-2-methylpyridin-3-yl)methyl)-5,5-difluoropiperidine-3-carboxylic acid], the IC50 is under 100 nM.

With `CCCc1ccc(=O)n(Cc2c(-c3ccc(CN4CC(C(=O)O)CC(F)(F)C4)c(CC)n3)nnn2C)c1` (single isomer, unassigned) [Example 149, (S) or (R)-1-((2-ethyl-6-(1-methyl-5-((2-oxo-5-propylpyridin-1(2H)-yl)methyl)-1H-1,2,3-triazol-4-yl)pyridin-3-yl)methyl)-5,5-difluoropiperidine-3-carboxylic acid], the IC50 was 100 to 500 nM. `CCCc1ccc(=O)n(Cc2c(-c3ccc(CN4CC(C(=O)O)CC(F)(F)C4)c(CC)n3)nnn2C)c1` (single isomer, unassigned) [Example 150, (R) or (S)-1-((2-ethyl-6-(1-methyl-5-((2-oxo-5-propylpyridin-1(2H)-yl)methyl)-1H-1,2,3-triazol-4-yl)pyridin-3-yl)methyl)-5,5-difluoropiperidine-3-carboxylic acid]: the IC50 is 100 to 500 nM. As to `CCc1nc(-c2nnn(C)c2COc2nccc(C3CCC3)n2)ccc1CN1CC(C(=O)O)CC(F)(F)C1` (single isomer, unassigned) [Example 152, (S) or (R)-1-((6-(5-(((4-cyclobutylpyrimidin-2-yl)oxy)methyl)-1-methyl-1H-1,2,3-triazol-4-yl)-2-ethylpyridin-3-yl)methyl)-5,5-difluoropiperidine-3-carboxylic acid], the concentration for half-maximal inhibition (IC50) is under 100 nM.

Turning to `CCc1nc(-c2nnn(C)c2COc2nccc(C3CCC3)n2)ccc1CN1CC(C(=O)O)CC(F)(F)C1` (single isomer, unassigned) [Example 153, (R) or (S)-1-((6-(5-(((4-cyclobutylpyrimidin-2-yl)oxy)methyl)-1-methyl-1H-1,2,3-triazol-4-yl)-2-ethylpyridin-3-yl)methyl)-5,5-difluoropiperidine-3-carboxylic acid], the IC50 lay in the range of 500 to 5000 nM. For the compound `CCc1nc(-c2nnn(C)c2Cn2cc(CC(C)C)ccc2=O)ccc1CN1CC(C(=O)O)CC(F)(F)C1` (single isomer, unassigned) [Example 154, (S) or (R)-1-((2-ethyl-6-(5-((5-isobutyl-2-oxopyridin-1(2H)-yl)methyl)-1-methyl-1H-1,2,3-triazol-4-yl)pyridin-3-yl)methyl)-5,5-difluoropiperidine-3-carboxylic acid], the IC50 is 100 to 500 nM. For the compound `CCc1nc(-c2nnn(C)c2Cn2cc(CC(C)C)ccc2=O)ccc1CN1CC(C(=O)O)CC(F)(F)C1` (single isomer, unassigned) [Example 155, (R) or (S)-1-((2-ethyl-6-(5-((5-isobutyl-2-oxopyridin-1(2H)-yl)methyl)-1-methyl-1H-1,2,3-triazol-4-yl)pyridin-3-yl)methyl)-5,5-difluoropiperidine-3-carboxylic acid], the IC50 was in the range of 500 to 5000 nM. Take `CCCc1ccc(=O)n(Cc2c(-c3ccc(CN4CC(C(=O)O)CC(F)(F)C4)c(C)n3)nnn2C)c1` (single isomer, unassigned) [Example 156, (S) or (R)-5,5-difluoro-1-((2-methyl-6-(1-methyl-5-((2-oxo-5-propylpyridin-1(2H)-yl)methyl)-1H-1,2,3-triazol-4-yl)pyridin-3-yl)methyl)piperidine-3-carboxylic acid]: the concentration for half-maximal inhibition (IC50) lay in the range of 100 to 500 nM. The figure for `CCCc1ccc(=O)n(Cc2c(-c3ccc(CN4CC(C(=O)O)CC(F)(F)C4)c(C)n3)nnn2C)c1` (single isomer, unassigned) [Example 157, (R) or (S)-5,5-difluoro-1-((2-methyl-6-(1-methyl-5-((2-oxo-5-propylpyridin-1(2H)-yl)methyl)-1H-1,2,3-triazol-4-yl)pyridin-3-yl)methyl)piperidine-3-carboxylic acid] is 500 to 5000 nM.

Regarding `CCCc1cnn(Cc2c(-c3ccc(CN4CC(C(=O)O)CC(F)(F)C4)c(C)n3)nnn2C)c(=O)c1` (single isomer, unassigned) [Example 158, (S) or (R)-5,5-difluoro-1-((2-methyl-6-(1-methyl-5-((6-oxo-4-propylpyridazin-1(6H)-yl)methyl)-1H-1,2,3-triazol-4-yl)pyridin-3-yl)methyl)piperidine-3-carboxylic acid], the IC50 is over 5000 nM. With `CCCc1cnn(Cc2c(-c3ccc(CN4CC(C(=O)O)CC(F)(F)C4)c(C)n3)nnn2C)c(=O)c1` (single isomer, unassigned) [Example 159, (R) or (S)-5,5-difluoro-1-((2-methyl-6-(1-methyl-5-((6-oxo-4-propylpyridazin-1(6H)-yl)methyl)-1H-1,2,3-triazol-4-yl)pyridin-3-yl)methyl)piperidine-3-carboxylic acid], the half-maximal inhibitory concentration (IC50) was over 5000 nM.
